Measured values published in ChEMBL document CHEMBL1156829 (Proc Natl Acad Sci U S A, 2008).

Experiments:
Plasmodium falciparum [1] = assay: NOVARTIS: Inhibition of Plasmodium falciparum W2 (drug-resistant) proliferation in erythrocyte-based infection assay; assay type: functional, organism-based; conditions: Plasmodium falciparum, W2; read-out: EC50
Plasmodium falciparum [2] = assay: NOVARTIS: Inhibition of Plasmodium falciparum 3D7 (drug-susceptible) proliferation in erythrocyte-based infection assay; assay type: functional, organism-based; conditions: Plasmodium falciparum, 3D7
[3] = NOVARTIS: Cytotoxicity against human hepatocellular carcinoma cell line (Huh7); assay type: toxicity, cell-based, Huh-7; conditions: Huh7 cells (hepatocellular carcinoma cell line)

SMILES | EC50 (Plasmodium falciparum [1]) [nM] | EC50 (Plasmodium falciparum [2]) [nM] | CC50 [3] [nM]
COc1ccc(-c2cc3c(nn2)-c2ccccc2C3=O)cc1 | 1640 | 3840 | 65800
Cc1nc2ccc(Br)cc2c(O)c1CC(C)C | 2530 | 2730 | > 100000
COC(=O)c1ccnn(-c2ccccc2)c1=O | 319 | > 1690 | 12900
COc1ccc2nc(NC(N)=NC(=O)Nc3ccccc3)nc(C)c2c1 | 896 | 688 | 34800
CCCN(CCC)CCCNc1ccc(C(=O)Nc2ccc(C)c(F)c2)cc1[N+](=O)[O-] | 268 | 146 | 10600
Cc1c(CN2CCC(N3CCC(C(=O)NC4CC4)CC3)CC2)[nH]c2c(Cl)cccc12 | 1400 | 345 | 56500
COc1ccc(C(=O)Nc2nonc2-c2ccc(OC)c(OC)c2)cc1Cl | 2540 | 1780 | > 100000
CSc1nc(N)c2c3c(sc2n1)CCCC3 | > 253 | > 1250 | > 10000
O=C(c1ccccc1F)N1CCN(Cc2ccccc2C(F)(F)F)CC1 | 2470 | 511 | > 100000
O=C(NCc1ccccc1)c1cnc(NCCCn2ccnc2)nc1NCCc1ccccc1 | 320 | 205 | 12800
CCN(CC)C(=O)N1CCN(c2ccc(Nc3ccnc4cc5ccccc5cc34)cc2)CC1 | 2470 | 961 | > 100000
CC(C)CN(CC(=O)Nc1cc(C(C)(C)C)nn1-c1ccccc1)C(=O)COc1ccccc1 | 432 | 773 | 17600
CCOc1ccc2[nH]c(=O)c(CN(CCN3CCCC3)C(=S)Nc3ccc(F)cc3)cc2c1 | 2510 | 1820 | > 100000
CN1CCN(Nc2ccnc3cc4ccccc4cc23)CC1 | 246 | 104 | > 10000
COc1ccc(C(=O)NCCc2ccc(C)cc2)cc1OC1CCN(C(C)=O)CC1 | 2520 | > 9060 | > 100000
COc1ccccc1C=CC1=NC(=Cc2ccc(SC)cc2)C(=O)O1 | 2510 | 2040 | > 100000
Cc1ccc(-c2nnc(NCc3ccccc3)c3ccccc23)cc1S(=O)(=O)NCC1CCCO1 (stereo unspecified) | 2570 | 1850 | > 100000
CCOc1ccc2nc(C)cc(Nc3ccc(C)c(Cl)c3)c2c1 | 348 | 240 | 13600
COc1ccc(Nc2nc(Nc3ccc(OC)cc3)c3ccccc3n2)cc1 | 51.9 | 57.3 | 2100
COc1ccc(C2Nc3ccc(C(C)=O)cc3C3C=CCC32)cc1[N+](=O)[O-] (stereo unspecified) | 2570 | 2150 | > 100000
CCCCOc1ccc(C2C3CCCC=C3C(C#N)=C(N)C2(C#N)C#N)cc1 (stereo unspecified) | 1480 | 3470 | 57700
Fc1ccc2[nH]c3c(N4CCN(C(c5ccccc5)c5ccccc5)CC4)ncnc3c2c1 | 378 | 438 | 14800
COc1ccc(Nc2cc(C)nc(NCc3ccccc3)n2)cc1 | 427 | 151 | 16700
Cc1ccc(S(=O)(=O)Nn2c(SCC(=O)NCCc3ccc(S(N)(=O)=O)cc3)nc3ccccc3c2=O)cc1 | 2490 | > 12500 | > 100000
Cc1ccc(O)c(NC(=O)c2cnn3c(C(F)(F)F)cc(-c4ccc(Br)cc4)nc23)c1 | 2480 | 7450 | > 100000
COc1ccc(-n2c(SC)nc3sc4c(c3c2=O)CCN(Cc2ccccc2)C4)cc1 | 2550 | 2480 | > 100000

SMILES | EC50 (Plasmodium falciparum [1]) [nM] | EC50 (Plasmodium falciparum [2]) [nM] | CC50 [3] [nM]
COc1cc(-c2nc(-c3ccc(Sc4ccccc4)cc3)c(-c3ccccc3)[nH]2)cc(OC)c1O | 1640 | 1280 | 64300
COc1ccc2nc3cc(Cl)ccc3c(NCCN(CCN)CCN)c2c1 | 254 | 808 | > 10000
CC(Oc1ccc(Cl)cc1Cl)c1nc(-c2ccc(NC(=O)c3cccs3)cc2)no1 (stereo unspecified) | 631 | 429 | 25600
COc1ccc(Nc2ncnc3[nH]c(-c4cccc([N+](=O)[O-])c4)cc23)cc1 | 2500 | 2490 | > 100000
CN(CCCNc1ccnc2cc(Cl)ccc12)S(=O)(=O)c1cccc2cccnc12 | 249 | 188 | > 10000
CC1CC(N(C(=O)c2ccc(Cl)cc2Cl)c2ccccc2)c2ccccc2N1C(=O)c1ccc(Cl)cc1 (stereo unspecified) | 2530 | 2780 | > 100000
c1ccc(-c2cc(N3CCN(c4ccccn4)CC3)nc(-c3ccccn3)n2)nc1 | 76.7 | 72.9 | 3030
CN(C)CCn1cnc2sc3c(c2c1=O)CCC(NCc1cccc(Cl)c1)C3 (stereo unspecified) | 479 | 748 | 18900
CCCCC(CC)C(=O)N(C)CCCNc1ccnc2cc(Cl)ccc12 (stereo unspecified) | 233 | 514 | > 9260
COc1ccc([N+](=O)[O-])cc1NC(=O)C(C)Nc1ccc(N(C)C)cc1 (stereo unspecified) | 860 | 343 | 34200
O=C(NCc1ccccc1)C(c1ccc(F)cc1)N(Cc1ccco1)C(=O)c1cnccn1 (stereo unspecified) | 2520 | > 8940 | > 100000
COc1ccccc1CNC(=O)CCC1N=C2c3ccccc3N=C(SCC(=O)Nc3ccc(F)cc3)N2C1=O (stereo unspecified) | 2510 | 5290 | > 100000
Nc1cccc(C(=O)Nc2ccc(Oc3cccc(Oc4ccc(NC(=O)c5cccc(N)c5)cc4)c3)cc2)c1 | 2550 | > 12000 | > 100000
CCOc1ccccc1C(=O)NC(Nc1sc2c(c1C(N)=O)CCCC2)(C(F)(F)F)C(F)(F)F | 2490 | > 7500 | > 100000
O=C1CSC(=NN=Cc2cccnc2)N1c1ccccc1 | 2490 | > 12500 | > 100000
CCOc1ccc2nc(C)cc(Nc3ccc(Br)cc3)c2c1 | 182 | 114 | 7290
COc1cc(OC)cc(C(=O)N(C)CCCNc2ccnc3cc(Cl)ccc23)c1 | 116 | 143 | 4700
CCC(c1nc2ccccc2c(=O)n1-c1ccccc1OC)N(CCc1ccccc1)C(=O)c1ccc(F)cc1 (stereo unspecified) | 180 | 1020 | > 7250
CCCC[C@@H](C)C(O)[C@H]1C(=O)N[C@@H](CC)C(=O)N(C)CC(=O)N(C)[C@@H](CC(C)C)C(=O)N[C@@H](C(C)C)C(=O)N(C)[C@@H](CC(C)C)C(=O)N[C@@H](C)C(=O)N[C@H](C)C(=O)N(C)[C@@H](CC(C)C)C(=O)N(C)[C@@H](CC(C)C)C(=O)N(C)[C@@H](C(C)C)C(=O)N1C (stereo partly specified) | 251 | 859 | > 10000
O=C(NCCN(CCNc1ccnc2cc(Cl)ccc12)CCNc1ccnc2cc(Cl)ccc12)C1CCC1 | 255 | 207 | > 10000
COC(=O)c1ccc(C2C3=C(O)CC(c4cccs4)CC3=Nc3ccccc3N2C(=O)c2ccccc2)cc1 (stereo unspecified) | 625 | 436 | 25000
O=C(O)CC/C(=C1/C=C(c2ccc(Cl)cc2)NC1=O)c1ccc(Cl)cc1 | 256 | > 1650 | > 10000
Cc1cccn2c(NCc3ccccc3)c(-c3ccccc3OC(=O)CCCCl)nc12 | 253 | 781 | > 10000
O=C(NCCCNC(=O)Nc1cccc(C2=NCCN2)c1)Nc1cccc(C2=NCCN2)c1 | 256 | 326 | > 10000
C=CC1CN2CCC1CC2[C@@H](OC(=O)/C=C/c1ccc(Cl)cc1)c1ccnc2ccc(OC)cc12 (stereo partly specified) | 252 | 272 | > 10000
Cc1ccc(NC(=O)C2CC3c4ccccc4C2c2ccccc23)cc1 (stereo unspecified) | 2550 | > 12500 | > 100000
